The text below walks through data of patent US20140155415A1, “BENZ[…] BENZODIOXINE COMPOUNDS THAT INTERACT WITH G[…] FOR THE TREATMENT OF DIABETES” (priority 2011, published 2014).

Assay [1] has as its target T1, GK-GKRP (glucokinase / glucokinase regulatory protein) (Homo sapiens, UniProt Q14397).
T1 sequence (Q14397 1-625): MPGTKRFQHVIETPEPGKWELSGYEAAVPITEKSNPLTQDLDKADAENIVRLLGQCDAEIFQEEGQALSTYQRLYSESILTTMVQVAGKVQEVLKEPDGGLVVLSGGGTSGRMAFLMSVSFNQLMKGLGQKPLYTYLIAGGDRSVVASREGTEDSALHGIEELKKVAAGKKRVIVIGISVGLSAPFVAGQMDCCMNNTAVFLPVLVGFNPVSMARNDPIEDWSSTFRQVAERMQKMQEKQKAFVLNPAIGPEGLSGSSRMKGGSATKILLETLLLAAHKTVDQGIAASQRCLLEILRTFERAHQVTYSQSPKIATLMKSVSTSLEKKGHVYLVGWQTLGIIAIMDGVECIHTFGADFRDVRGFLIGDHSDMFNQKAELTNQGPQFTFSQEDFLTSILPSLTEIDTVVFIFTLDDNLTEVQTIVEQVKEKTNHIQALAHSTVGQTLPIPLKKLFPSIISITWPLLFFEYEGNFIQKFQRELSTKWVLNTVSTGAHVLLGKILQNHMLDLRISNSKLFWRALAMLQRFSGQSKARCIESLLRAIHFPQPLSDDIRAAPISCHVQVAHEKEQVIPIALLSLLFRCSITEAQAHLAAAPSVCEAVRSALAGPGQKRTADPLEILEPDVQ
Briefly: GKRP LC MS/MS Biochemical Assay (LCMS/MS). To be noted: formation of 13C-glucose-6-phosphate from 13C-glucose by LC MS/MS, human His-hepatic GK, fructose-6-phosphate. In a few lines: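 Human His-tagged hepatic GK (30 nM working stock, 5×) with GKRP in 50 mM Tris pH 7.5, 4 mM MgCl2, 6% DMSO; compound preincubated 30 min, then GK added for 30 min at room temperature. Acetonitrile-stopped; 13C-glucose-6-phosphate formed from 13C-glucose quantified by LC MS/MS.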

Assay [2] addresses T2, GK-GKRP (interaction between glucokinase and glucokinase regulatory protein) (Homo sapiens, UniProt Q14397).
T2 construct: made in house; host or cells: GKRP: baculovirus system
T2 sequence (Q14397 1-625): T1 sequence (Q14397 1-625)
Briefly: GK-GKRP Binding Assay (Binding), AlphaScreen. To be noted: avi-tagged GKRP, GK-fluorescein, AlphaScreen beads, 1 μM sorbitol-6-phosphate; read-out: GK-GKRP IC50 (Binding). A digest of the protocol: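 Biotinylated, C-terminally avi-tagged human GKRP was preincubated 20 min at room temperature with compound, then fluorescein-labelled human hepatic GK was added (6 nM in the added buffer). The mix was incubated 2 h at room temperature in the dark before AlphaScreen reading. Buffer was 20 mM Tris pH 7.5, 0.05% BSA, 1 mM DTT, 1 μM sorbitol-6-phosphate.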

Molecules are shown by their SMILES.

For the compound `O=S(=O)(NC(c1ccccc1)c1cc2ncccc2s1)c1ccc2c(c1)OCCCO2` (racemic) [Example 61, N-(phenyl(thieno[3,2-b]pyridin-2-yl)methyl)-3,4-dihydro-2H-1,5-benzodioxepine-7-sulfonamide], it took 2500 nM to reach a half-maximal effect in assay [1] (EC50). The half-maximal inhibitory concentration (IC50) in assay [2] stood at 2300 nM.

In assay [1], `COc1ccccc1C(NS(=O)(=O)c1ccc2c(c1)OCCCO2)c1cc2ccncc2s1` (racemic) [Example 66, N-((2-methoxyphenyl)(thieno[2,3-c]pyridin-2-yl)methyl)-3,4-dihydro-2H-1,5-benzodioxepine-7-sulfonamide] gave a concentration for a half-maximal effect (EC50) of 82 nM. Also, the IC50 in assay [2] was determined as 72 nM.

As for `O=S(=O)(NC(c1ccccc1)c1cc2ccccc2o1)c1ccc2c(c1)OCC(F)CO2` (racemic) [Example 35, N-(1-benzofuran-2-yl(phenyl)methyl)-3-fluoro-3,4-dihydro-2H-1,5-benzodioxepine-7-sulfonamide], the EC50 in assay [1] was found to be 3100 nM. Also, the IC50 in assay [2] turned out to be 2300 nM.

In the case of `CSc1ccccc1[C@@H](NS(=O)(=O)c1ccc2c(c1)OCCCO2)c1cc2ccccc2o1` (single isomer, unassigned) [Example 19 Peak #2], in assay [1], a half-maximal effect (EC50) was put at 23 nM. Also, the IC50 in assay [2] was 46 nM.

`O=S(=O)(N[C@H](c1ccccn1)c1cc2ccccc2o1)c1ccc2c(c1)OCCCO2` (single isomer, unassigned) [Example 25 Peak #2]: the EC50 in assay [1] was 290 nM. Besides, the IC50 in assay [2] was found to be 210 nM.

`Cc1cccc(F)c1C(NS(=O)(=O)c1ccc2c(c1)OCCCO2)c1cc2ccccc2o1` (racemic) [Example 5, N-(1-benzofuran-2-yl(2-fluoro-6-methylphenyl)methyl)-3,4-dihydro-2H-1,5-benzodioxepine-7-sulfonamide]: it took 790 nM to reach a half-maximal effect in assay [1] (EC50). In addition, the half-inhibitory concentration (IC50) in assay [2] stood at 1000 nM.

In turn, `Cc1c(C(NS(=O)(=O)c2ccc3c(c2)OCCCO3)c2ccccc2)oc2ccccc12` (racemic) [Example 44, N-((3-methyl-1-benzofuran-2-yl)(phenyl)methyl)-3,4-dihydro-2H-1,5-benzodioxepine-7-sulfonamide] came in with a concentration for a half-maximal effect (EC50) in assay [1] of 480 nM. For the same compound, the IC50 in assay [2] amounted to 1000 nM.

`Cc1ccsc1C(NS(=O)(=O)c1ccc2c(c1)OCCCO2)c1cc2ccccc2o1` (racemic) [Example 33, N-(1-benzofuran-2-yl(3-methyl-2-thiophenyl)methyl)-3,4-dihydro-2H-1,5-benzodioxepine-7-sulfonamide] had a 50% effective concentration (EC50) in assay [1] of 1200 nM. In assay [2], the half-maximal inhibitory concentration (IC50) worked out at 1400 nM.

`O=S(=O)(N[C@@H](c1cc2ccccc2o1)c1ccccc1I)c1ccc2c(c1)OCCCO2` (single isomer, unassigned) [Example 21 Peak #2] yielded an EC50 in assay [1] of 42 nM. Further, the IC50 in assay [2] is 40 nM.

Take `O=S(=O)(N[C@@H](c1ccccn1)c1cc2ccccc2o1)c1ccc2c(c1)OCCCO2` (single isomer, unassigned) [Example 25 Peak #1]: the EC50 in assay [1] was 6000 nM. In assay [2], the IC50 turned out to be 3800 nM.

Compound `Cc1ccccc1C(NS(=O)(=O)c1ccc2c(c1)OCCCO2)c1cc2ccccc2s1` (racemic) [Example 36, N-(1-benzothiophen-2-yl(2-methylphenyl)methyl)-3,4-dihydro-2H-1,5-benzodioxepine-7-sulfonamide] registered an EC50 in assay [1] of 150 nM. Further, the IC50 in assay [2] is 290 nM.

As for `CCc1ccccc1[C@H](NS(=O)(=O)c1ccc2c(c1)OCCCO2)c1cc2ccccc2o1` (single isomer, unassigned) [Example 6 Peak #1], the 50% effective concentration (EC50) in assay [1] is > 50000 nM. For the same compound, the concentration for half-maximal inhibition (IC50) in assay [2] stood at 4800 nM.

The compound `C=Cc1ccccc1C(NS(=O)(=O)c1ccc2c(c1)OCCCO2)c1cc2ccccc2s1` (racemic) [Example 38, N-(1-benzothiophen-2-yl(2-ethenylphenyl)methyl)-3,4-dihydro-2H-1,5-benzodioxepine-7-sulfonamide] came in with an EC50 in assay [1] of 31 nM. Also, in assay [2], the IC50 is 25 nM.

The compound `CC(C)c1ccccc1C(NS(=O)(=O)c1ccc2c(c1)OCCCO2)c1cc2ccccc2o1` (racemic) [Example 9, N-(1-benzofuran-2-yl(2-(1-methylethyl)phenyl)methyl)-3,4-dihydro-2H-1,5-benzodioxepine-7-sulfonamide] registered an EC50 in assay [1] of 280 nM. Besides, the 50% inhibitory concentration (IC50) in assay [2] is 1100 nM.

Turning to `C#Cc1ccccc1C(NS(=O)(=O)c1ccc2c(c1)OCCCO2)c1cc2ccccc2o1` (racemic) [Example 8, N-(1-benzofuran-2-yl(2-ethynylphenyl)methyl)-3,4-dihydro-2H-1,5-benzodioxepine-7-sulfonamide], in assay [1], it took 72 nM to reach a half-maximal effect (EC50). Moreover, in assay [2], the IC50 worked out at 47 nM.

As for `CCc1ccccc1[C@H](NS(=O)(=O)c1ccc2c(c1)OCCCO2)c1cc2ccccc2s1` (single isomer, unassigned) [Example 37 Peak #1], the EC50 in assay [1] is > 20000 nM. In assay [2], the IC50 worked out at 1300 nM.

In turn, `Cc1ccccc1[C@@H](NS(=O)(=O)c1ccc2c(c1)OCCCO2)c1cc2ccccc2s1` (single isomer, unassigned) [Example 36 Peak #2] displayed a half-maximal effective concentration (EC50) in assay [1] of 62 nM. Besides, the IC50 in assay [2] is 240 nM.

In assay [1], `O=S(=O)(NC(c1cccc(O)c1)c1cc2ccccc2o1)c1ccc2c(c1)OCCCO2` (racemic) [Example 13, N-(1-benzofuran-2-yl(3-hydroxyphenyl)methyl)-3,4-dihydro-2H-1,5-benzodioxepine-7-sulfonamide] gave a half-maximal effective concentration (EC50) of 1800 nM. Further, the IC50 in assay [2] worked out at 2500 nM.

Regarding `CCc1ccccc1C(NS(=O)(=O)c1ccc2c(c1)OCCCO2)c1cc2ccccc2s1` (racemic) [Example 37, N-(1-benzothiophen-2-yl(2-ethylphenyl)methyl)-3,4-dihydro-2H-1,5-benzodioxepine-7-sulfonamide], the midpoint of the response in assay [1], the EC50, lay at 160 nM. Also, the 50% inhibitory concentration (IC50) in assay [2] turned out to be 300 nM.

For the compound `O=S(=O)(NC(c1ccccc1)c1cc2cccc(-c3ccccn3)c2s1)c1ccc2c(c1)OCCCO2` (racemic) [Example 71, N-(phenyl(7-(2-pyridinyl)-1-benzothiophen-2-yl)methyl)-3,4-dihydro-2H-1,5-benzodioxepine-7-sulfonamide], the response in assay [1] was half-maximal at 290 nM (EC50). Besides, the IC50 in assay [2] stood at 540 nM.

The compound `COc1ccccc1C(NS(=O)(=O)c1ccc2c(c1)OCCCO2)c1nc2cccnc2s1` (racemic) [Example 67, N-((2-methoxyphenyl)([1,3]thiazolo[5,4-b]pyridin-2-yl)methyl)-3,4-dihydro-2H-1,5-benzodioxepine-7-sulfonamide] registered an EC50 in assay [1] of 95 nM. The concentration for half-maximal inhibition (IC50) in assay [2] came out at 58 nM.

Compound `COc1ccc2sc(C(NS(=O)(=O)c3ccc4c(c3)OCCCO4)c3ccccc3)cc2c1` (racemic) [Example 58, N-((5-methoxy-1-benzothiophen-2-yl)(phenyl)methyl)-3,4-dihydro-2H-1,5-benzodioxepine-7-sulfonamide] displayed a 50% effective concentration (EC50) in assay [1] of 200 nM. Also, the IC50 in assay [2] was found to be 790 nM.

`COc1ccccc1C(NS(=O)(=O)c1ccc2c(c1)OCCCO2)c1nc2ccccc2s1` (racemic) [Example 51, N-(1,3-benzothiazol-2-yl(2-methoxyphenyl)methyl)-3,4-dihydro-2H-1,5-benzodioxepine-7-sulfonamide] had a concentration for a half-maximal effect (EC50) in assay [1] of 68 nM. Also, in assay [2], the IC50 came out at 42 nM.

As for `O=S(=O)(NC(c1ccccc1)c1ccc2ccccc2n1)c1ccc2c(c1)OCCCO2` (racemic) [Example 56, N-(phenyl(2-quinolinyl)methyl)-3,4-dihydro-2H-1,5-benzodioxepine-7-sulfonamide], a half-maximal effect in assay [1] (EC50) was put at 720 nM. The IC50 in assay [2] turned out to be 1400 nM.

`O=S(=O)(N[C@@H](c1ccccc1)c1cc2ccccc2s1)c1ccc2c(c1)OCCCO2` (single isomer, unassigned) [Example 57 Peak #1] registered an EC50 in assay [1] of 700 nM. For the same compound, in assay [2], the IC50 was determined as 3000 nM.

For `O=S(=O)(NC(c1cc2ccccc2o1)c1ccccc1CO)c1ccc2c(c1)OCCCO2` (racemic) [Example 15, N-(1-benzofuran-2-yl(2-(hydroxymethyl)phenyl)methyl)-3,4-dihydro-2H-1,5-benzodioxepine-7-sulfonamide], in assay [1], a half-maximal effect (EC50) was put at 1600 nM. Further, the half-inhibitory concentration (IC50) in assay [2] is 4600 nM.

`COc1cccnc1C(NS(=O)(=O)c1ccc2c(c1)OCCCO2)c1cc2ccccc2s1` (racemic) [Example 43, N-(1-benzothiophen-2-yl(3-methoxy-2-pyridinyl)methyl)-3,4-dihydro-2H-1,5-benzodioxepine-7-sulfonamide]: in assay [1], the midpoint of the response, the EC50, lay at 47 nM. The IC50 in assay [2] was 41 nM.
